In one data set the test system is RPMI-8826. Description: CellTiter-Glo cell viability assay, RPMI-8826. The class given is cell-based. How it is done: (§1) As TNF-α and related signaling cascades represent crucial factors for the single-agent activity of IAP-targeting compounds,[29],[38],[39],[55] the viability inhibition of sensitive cell lines was evaluated in the presence and absence of this inflammatory stimulus. […] These effects were independent of IAP baseline levels (Figure S16), which is in agreement with the previous studies of IAP antagonists.
(§2) Cells were seeded in 384-well plates with respective treatments, and plates were incubated at 37 °C for 96 h. Viability assays were performed with or without the addition of TNF-α at 1 ng/mL. The cell viability readout was measured using the CellTiter-Glo Luminescent Cell Viability Assay (Promega, Madison, USA) and measured with a Synergy LX Multi-Mode plate reader (BioTek, Vermont, USA). All conditions were normalized to the DMSO-treated control. Data represents the mean ± SD of biological triplicates.
A general note: Cellular ATP, detected with luciferase, serves as a proxy for viable cell number.

The subject of another data set is HEL. Put plainly: CellTiter-Glo cell viability assay, HEL. The class given is cell-based. How it is done:
as §1, §2

Another data set deals with DB. Put plainly: CellTiter-Glo cell viability assay, DB. The format is cell-based. How it is done: as §1, §2
The test system of another data set is MOLM13. Put plainly: CellTiter-Glo cell viability assay, MOLM13. The format is cell-based. How it is done: as §1, §2
For another data set, the system named is SUDHL4. Put plainly: CellTiter-Glo cell viability assay, SUDHL4. The format is cell-based. How it is done: as §1, §2
The next data set concerns K562. Description: CellTiter-Glo cell viability assay, K562. The class given is cell-based. How it is done: as §1, §2
Another data set deals with JJN3. Put plainly: CellTiter-Glo cell viability assay, JJN3. The class given is cell-based. On the procedure: as §1, §2
The next data set addresses cIAP2 (Homo sapiens, UniProt Q13489). Put plainly: Immunoblotting (western blot) quantification of cIAP2 levels in MM.1S cells. The note with it: for remaining activity at 0.1 µM: MM1.S, read-out: %remaining protein cIAP2, MM.1S cells, 16 h treatment at 0.1 μM, normalized to loading control and DMSO. On the technique in general: Immunoblotting shows a protein as a band on a membrane.

A further data set relates to NCI-H929. Put plainly: CellTiter-Glo cell viability assay, NCI-H929. The class given is cell-based. On the procedure: as §1, §2
The test system of a further data set is SUDHL6. Put plainly: CellTiter-Glo cell viability assay, SUDHL6. The format is cell-based. On the procedure:
as §1, §2

Data set [1] has as its system IAPs (cIAP1, cIAP2, XIAP). Put plainly: Immunoblotting of IAPs in MM.1S cells, overall degradation profile, time course and washout. The note with it: 16 h, western blot, concentration (10 nM to 1 μM). The format is cell-based. On the procedure:
Next, we examined the persistence of IAP degradation in MM.1S cells after a single exposure to 1 μM of 9 and subsequent removal of the compound. […] The reliance on CRL2^VHL was assessed with a neddylation inhibitor MLN4924, which blocks the activity of CRLs (Figure S13A).

Data set [2] is described as follows: Log D7.4 measurement by chromatographic (fast-gradient HPLC) method. Conditions: pH 7.4.
Method: The system was calibrated by plotting the retention times of six different drugs (atenolol, metoprolol, labetalol, diltiazem, triphenylene, and permethrin) versus their literature-known log D7.4 in a calibration line (R^2 = 0.99). Subsequently, the mean retention times of the analytes were taken to calculate their log D7.4 values with the aid of the calibration line. At least two independent measurements of each analyte were performed.
Another data set addresses XIAP (Homo sapiens, UniProt P98170). Put plainly: Immunoblotting (western blot) quantification of XIAP levels in MM.1S cells. Conditions: 16 h; for remaining activity at 0.1 µM: MM1.S, read-out: %remaining protein XIAP, MM.1S cells, 16 h treatment at 0.1 μM, normalized to loading control and DMSO.
A further data set concerns the target cIAP1 (Homo sapiens, UniProt Q13490). Put plainly: Immunoblotting (western blot) quantification of cIAP1 levels in MM.1S cells. The note with it: MM1.S, 16 h, read-out: %remaining protein cIAP1, MM.1S cells, 16 h treatment at 0.1 μM, normalized to loading control and DMSO.
For data set [3], the target named is T1, plasma protein (HSA column) (Homo sapiens, UniProt P02768).
T1 construct: purchased
Put plainly: Plasma protein binding estimated by HPLC on a […] HSA column. Conditions: CHIRALPAK HSA column (50 × 3 mm, 5 μm), estimated by an HPLC-based method, read-out: PPB (plasma protein binding) (converted). The class given is in vitro ADME. How it is done: Plasma protein binding (% PPB) was estimated by correlating the logarithmic retention times of the analytes on a […] HSA 50 × 3 mm, 5 μm column with the literature-known % PPB values (converted into log K values) of the following drugs: warfarin, ketoprofen, budesonide, nizatidine, indomethacin, acetylsalicylic acid, carbamazepine, piroxicam, nicardipine, and cimetidine (for details, see Valko et al.).[67] The samples were dissolved in MeCN/DMSO 9:1 to achieve a final concentration of 0.5 mg/mL. Mobile phase A was 50 mM ammonium acetate adjusted to pH 7.4 with ammonia solution, while mobile phase B was iPrOH. The flow rate was set to 1.0 mL/min, the UV detector was set to 254 nm, and the column temperature was kept at 30 °C. After injecting 2 μL of the sample, a linear gradient from 100% A to 30% iPrOH in 5.4 min was applied. From 5.4 to 18 min, 30% iPrOH was kept, followed by switching back to 100% A in 1.0 min and a re-equilibration time of 6 min. With the aid of the calibration line (R^2 = 0.96), the log K values of new substances were calculated and converted to their % PPB values.

For the next data set, the system named is IKZF3. Description: Immunoblotting (western blot) quantification of IKZF3 levels in MM.1S cells. The note with it: for %remaining protein IKZF3: 16 h treatment at 0.1 μM, normalized to loading control and DMSO.
For a further data set, the target named is CRBN (Homo sapiens, UniProt Q96SW2). Put plainly: Immunoblotting (western blot) quantification of CRBN levels in MM.1S cells. Conditions: MM1.S, 16 h, read-out: %remaining protein CRBN.

“Also recorded” adds a separate entry of the source. Read-outs that look alike come from different tables or passages of the source.

cIAP2, sequence (Q13489 whole entry): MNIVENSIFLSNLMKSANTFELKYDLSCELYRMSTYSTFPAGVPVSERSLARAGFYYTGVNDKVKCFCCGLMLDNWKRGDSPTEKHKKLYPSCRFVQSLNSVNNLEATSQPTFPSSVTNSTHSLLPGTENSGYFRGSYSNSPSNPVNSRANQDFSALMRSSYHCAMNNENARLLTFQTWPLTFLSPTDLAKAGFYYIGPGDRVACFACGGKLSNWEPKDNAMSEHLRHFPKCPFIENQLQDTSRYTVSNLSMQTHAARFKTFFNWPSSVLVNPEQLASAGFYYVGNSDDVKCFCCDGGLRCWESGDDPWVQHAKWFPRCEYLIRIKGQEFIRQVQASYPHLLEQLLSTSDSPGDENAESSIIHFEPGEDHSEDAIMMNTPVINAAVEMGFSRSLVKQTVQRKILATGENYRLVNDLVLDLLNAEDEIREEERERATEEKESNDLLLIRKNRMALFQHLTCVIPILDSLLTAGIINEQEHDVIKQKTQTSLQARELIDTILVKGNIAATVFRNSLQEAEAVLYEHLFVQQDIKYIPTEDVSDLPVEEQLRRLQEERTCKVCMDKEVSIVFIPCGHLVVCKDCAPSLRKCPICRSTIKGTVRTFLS
XIAP, sequence (P98170 whole entry): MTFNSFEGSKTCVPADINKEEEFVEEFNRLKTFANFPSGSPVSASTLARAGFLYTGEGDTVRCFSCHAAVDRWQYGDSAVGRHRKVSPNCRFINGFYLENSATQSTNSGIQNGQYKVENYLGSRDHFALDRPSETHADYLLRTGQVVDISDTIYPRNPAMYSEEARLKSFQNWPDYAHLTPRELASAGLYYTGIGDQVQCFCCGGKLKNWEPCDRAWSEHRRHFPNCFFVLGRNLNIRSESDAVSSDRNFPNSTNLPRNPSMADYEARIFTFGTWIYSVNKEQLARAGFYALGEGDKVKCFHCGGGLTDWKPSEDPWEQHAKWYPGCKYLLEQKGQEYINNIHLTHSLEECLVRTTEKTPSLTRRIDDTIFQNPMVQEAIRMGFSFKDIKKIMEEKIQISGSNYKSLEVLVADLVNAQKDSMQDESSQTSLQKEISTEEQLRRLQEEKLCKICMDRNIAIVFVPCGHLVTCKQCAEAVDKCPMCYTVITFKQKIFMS
T1 sequence (P02768 25-609): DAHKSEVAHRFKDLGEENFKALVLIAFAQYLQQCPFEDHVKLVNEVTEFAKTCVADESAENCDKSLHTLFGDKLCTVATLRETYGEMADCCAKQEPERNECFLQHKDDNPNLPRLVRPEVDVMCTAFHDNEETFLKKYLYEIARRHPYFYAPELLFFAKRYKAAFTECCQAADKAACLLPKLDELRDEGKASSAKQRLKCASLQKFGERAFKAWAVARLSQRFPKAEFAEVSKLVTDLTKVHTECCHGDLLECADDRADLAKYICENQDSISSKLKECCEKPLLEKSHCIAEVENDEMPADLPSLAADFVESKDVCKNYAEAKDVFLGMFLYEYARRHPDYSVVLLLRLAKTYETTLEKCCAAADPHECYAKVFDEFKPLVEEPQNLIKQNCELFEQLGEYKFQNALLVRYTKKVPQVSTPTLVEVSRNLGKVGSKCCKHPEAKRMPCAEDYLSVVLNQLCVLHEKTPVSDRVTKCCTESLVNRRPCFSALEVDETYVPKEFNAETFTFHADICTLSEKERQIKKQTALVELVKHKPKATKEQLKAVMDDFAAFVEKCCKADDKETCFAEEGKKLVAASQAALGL
cIAP1, sequence (Q13490 whole entry): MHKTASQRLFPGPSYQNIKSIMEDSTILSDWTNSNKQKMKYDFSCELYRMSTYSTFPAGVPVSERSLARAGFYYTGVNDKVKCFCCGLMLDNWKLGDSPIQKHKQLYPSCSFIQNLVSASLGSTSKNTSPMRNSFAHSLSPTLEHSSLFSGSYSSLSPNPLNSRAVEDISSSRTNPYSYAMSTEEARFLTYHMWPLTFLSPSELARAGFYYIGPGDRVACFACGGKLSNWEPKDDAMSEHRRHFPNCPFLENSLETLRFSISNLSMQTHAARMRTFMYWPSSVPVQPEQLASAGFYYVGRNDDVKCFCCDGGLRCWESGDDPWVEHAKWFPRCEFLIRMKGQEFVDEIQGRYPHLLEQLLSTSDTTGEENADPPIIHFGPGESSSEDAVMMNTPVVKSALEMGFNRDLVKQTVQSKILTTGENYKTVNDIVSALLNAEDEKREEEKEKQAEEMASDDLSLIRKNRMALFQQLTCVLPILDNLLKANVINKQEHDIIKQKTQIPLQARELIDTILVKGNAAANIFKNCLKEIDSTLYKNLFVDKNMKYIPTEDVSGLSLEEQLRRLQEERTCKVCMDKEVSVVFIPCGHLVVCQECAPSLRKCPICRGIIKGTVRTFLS
CRBN, sequence (Q96SW2 whole entry): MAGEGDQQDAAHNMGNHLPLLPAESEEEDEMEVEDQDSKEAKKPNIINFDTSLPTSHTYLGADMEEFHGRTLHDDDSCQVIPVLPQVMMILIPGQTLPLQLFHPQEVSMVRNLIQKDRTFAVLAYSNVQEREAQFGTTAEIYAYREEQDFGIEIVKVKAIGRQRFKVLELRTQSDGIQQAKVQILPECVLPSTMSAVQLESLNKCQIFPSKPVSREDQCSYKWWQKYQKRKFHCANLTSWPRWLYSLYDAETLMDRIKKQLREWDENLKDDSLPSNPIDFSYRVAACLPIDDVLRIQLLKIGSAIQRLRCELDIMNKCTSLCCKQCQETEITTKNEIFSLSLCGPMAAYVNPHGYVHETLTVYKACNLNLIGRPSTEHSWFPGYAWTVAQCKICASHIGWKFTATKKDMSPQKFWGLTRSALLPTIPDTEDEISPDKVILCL
Method for CRBN: (§3) To evaluate the capability of our panel of hetero-PROTACs for E3 ligase degradation, VHL19, VHL30, CRBN, cIAP1, cIAP2, and XIAP levels were quantified by western blot analyses. […] SDS-PAGE was performed, and proteins were then transferred onto PVDF membranes. Blotted membranes were blocked with 5% milk in Tris-buffered saline/Tween20 (TBST). Primary antibodies were diluted in 5% BSA in TBST, and incubations were performed overnight at 4 °C. Secondary HRP-conjugated antibodies diluted in 5% milk were incubated for 1 h at room temperature. Detection of proteins on PVDF was carried out using the WesternBright ECL HRP substrate or the WesternBright Sirius HRP substrate (Advansta, San Jose, USA) and imaged with LAS 4000× (Fujifilm). Membranes were subjected to 10 min incubation with Restore Western Blot Stripping Buffer (Thermo Fisher Scientific, Waltham, USA), followed by TBST washes. After brief re-activation with methanol, the membranes were blocked, and further probing of proteins was carried out.
(§4) Quantification of blots was performed using ImageJ software (National Institutes of Health).
Method for IKZF3: as §3, §4

Consider VH298 [reference compound], for which the IC50 with RPMI-8826 (MM cell line, 96 h, TNFα-challenged, read-out: IC50 cell viability RPMI-8826) was > 10 µM; in the data set on HEL (AML cell line, 96 h, TNFα-challenged, read-out: IC50 cell viability HEL), > 10 µM; in the data set with DB (DLBCL cell line, 96 h, TNFα-challenged, read-out: IC50 cell viability DB), > 10 µM; in the data set with MOLM13 (AML cell line, 96 h, TNFα-challenged, read-out: IC50 cell viability MOLM13), > 10 µM; in the data set on SUDHL4 (DLBCL cell line, 96 h, TNFα-challenged, read-out: IC50 cell viability SUDHL4), > 10 µM; in the data set on K562 (AML cell line, 96 h, TNFα-challenged, read-out: IC50 cell viability K562), > 10 µM. Also, the IC50 was > 10 µM in the data set with JJN3 (MM cell line, 96 h, TNFα-challenged, read-out: IC50 cell viability JJN3); > 10 µM in the data set on NCI-H929 (MM cell line, 96 h, TNFα-challenged, read-out: IC50 cell viability NCI-H929); > 10 µM in the data set with SUDHL6 (DLBCL cell line, 96 h, TNFα-challenged, read-out: IC50 cell viability SUDHL6). For the same compound, the “%remaining protein cIAP2” value on cIAP2 (MM.1S cells, 16 h treatment at 0.1 μM, normalized to loading control and DMSO) amounted to 81%. The “IAP degradation profile (in words)” value in [1] is “did not affect the levels of IAPs; also recorded: has no effects on the investigated proteins”.
Broadly, the chromatographic logD is a lipophilicity value derived from retention on a column. Read a low chromatographic logD as lower lipophilicity. Turning to `CN[C@@H](C)C(=O)N[C@H](C(=O)N1C[C@@H](Oc2cccc(OCCCCOCCCCNc3cccc4c3C(=O)N(C3CCC(=O)NC3=O)C4=O)c2)C[C@H]1C(=O)N[C@@H]1CCCc2ccccc21)C1CCCCC1` (stereo partly drawn) [PROTAC 22, (2S,4S)-1-((S)-2-Cyclohexyl-2-((S)-2-(methylamino)propanamido)acetyl)-4-(3-(4-(4-((2-(2,6-dioxopiperidin-3-yl)-1,3-dioxoisoindolin-4-yl)amino)butoxy)butoxy)phenoxy)-N-((R)-1,2,3,4-tetrahydronaphthalen-1-yl)pyrrolidine-2-carboxamide], the chromatographic logD in [2] stood at 4.9. In addition, the remaining activity at 0.1 µM came to 2% on XIAP, 3% at cIAP1, 7% on cIAP2 (16 h) and 77% at CRBN. Besides, in data set [3], the fraction unbound at 0.5 mg/mL was 0.04. Also, in the data set on IKZF3 (16 h, 1 μM), the “IKZF3 degradation (in words)” value is listed as “substantial IKZF3 degradation at 1 μM”. The “%remaining protein IKZF3” value in the data set with IKZF3 is on record as 61%. Besides, in the data set on IKZF3 (16 h treatment, 0.1 μM), the IKZF3 degraded result was “approximately 40%”. For the same compound, in data set [1], the “IAP degradation profile (in words)” value is “pronounced pan-IAP depletion”.
With `CN[C@@H](C)C(=O)N[C@H](C(=O)N1C[C@@H](Oc2cccc(OCCOCCCCCCOCCCCCCNc3cccc4c3C(=O)N(C3CCC(=O)N(C)C3=O)C4=O)c2)C[C@H]1C(=O)N[C@@H]1CCCc2ccccc21)C1CCCCC1` (stereo partly drawn) [PROTAC 28, (2S,4S)-1-((S)-2-Cyclohexyl-2-((S)-2-(methylamino)propanamido)acetyl)-4-(3-(2-((6-((6-((2-(1-methyl-2,6-dioxopiperidin-3-yl)-1,3-dioxoisoindolin-4-yl)amino)hexyl)oxy)hexyl)oxy)ethoxy)phenoxy)-N-((R)-1,2,3,4-tetrahydronaphthalen-1-yl)pyrrolidine-2-carboxamide], the IC50 amounted to 1.01 µM with RPMI-8826 (SI csv, head prints only the cell line, no quantity or unit, values parallel Table 1/S8, read-out: RPMI-8826); 0.77 µM in the data set on HEL (Homo sapiens, SI csv, head prints only the cell line, no quantity or unit, values parallel Table 1/S8, read-out: HEL); 0.57 µM in the data set with DB (Homo sapiens, SI csv, head prints only the cell line, no quantity or unit, values parallel Table 1/S8, read-out: DB); 0.63 µM in the data set on MOLM13 (Homo sapiens, MOLM-13, SI csv, head prints only the cell line, no quantity or unit, values parallel Table 1/S8, read-out: MOLM13); 1 µM in the data set with SUDHL4 (Homo sapiens, SU-DHL-4, SI csv, head prints only the cell line, no quantity or unit, values parallel Table 1/S8, read-out: SUDHL4); 0.84 µM in the data set on K562 (Homo sapiens, SI csv, head prints only the cell line, no quantity or unit, values parallel Table 1/S8, read-out: K562). Further, the IC50 turned out to be 0.9 µM in the data set with JJN3 (Homo sapiens, JJN-3, SI csv, head prints only the cell line, no quantity or unit, values parallel Table 1/S8, read-out: JJN3); 1.99 µM in the data set on NCI-H929 (Homo sapiens, SI csv, head prints only the cell line, no quantity or unit, values parallel Table 1/S8, read-out: NCI-H929); 0.44 µM in the data set on SUDHL6 (Homo sapiens, SU-DHL-6, SI csv, head prints only the cell line, no quantity or unit, values parallel Table 1/S8, read-out: SUDHL6). Further, in data set [2], the chromatographic logD is 6. Also, at XIAP (MM.1S cells, western blot, 0.1 or 1 μM), the “XIAP degradation (in words)” value was “failed to degrade XIAP at 1 μM concentration; also recorded: only marginally degrades XIAP”. Moreover, the “remaining protein cIAP2” value on cIAP2 (MM.1S cells, 16 h, 1 μM) was determined as 32%.
`CN[C@@H](C)C(=O)N[C@H](C(=O)N1C[C@@H](Oc2cccc(OCCCCCNc3cccc4c3C(=O)N(C3CCC(=O)NC3=O)C4=O)c2)C[C@H]1C(=O)N[C@@H]1CCCc2ccccc21)C1CCCCC1` (stereo partly drawn) [PROTAC 20, (2S,4S)-1-((S)-2-Cyclohexyl-2-((S)-2-(methylamino)propanamido)acetyl)-4-(3-((5-((2-(2,6-dioxopiperidin-3-yl)-1,3-dioxoisoindolin-4-yl)amino)pentyl)oxy)phenoxy)-N-((R)-1,2,3,4-tetrahydronaphthalen-1-yl)pyrrolidine-2-carboxamide] gave a chromatographic logD in data set [2] of 4.6. For the same compound, the remaining activity at 0.1 µM at XIAP came to 8%; on cIAP1, 6%; on cIAP2 (16 h) it was 34%; on CRBN, 95%. In addition, the fraction unbound at 0.5 mg/mL in data set [3] was 0.04. In addition, the “%remaining protein IKZF3” value with IKZF3 was found to be 89%.

These data come from publication PMC10108347, “Heterobifunctional Ligase Recruiters Enable pan-Degradation of Inhibitor of Apoptosis Proteins” (Journal of Medicinal Chemistry, 2023).
